Source: patent US20260285853A1, “COMPOUNDS AND METHODS FOR MODULATING SPLICING” (REMIX THERAPEUTICS INC., priority 2023, published 2026)

What was measured:
Format in all cases: cell-based
HTT mRNA [1] = assay: Splicing RT-qPCR assay (THP), Table 2A; settings: Table 2A (THP); for AC50: AJ mRNA increase, read-out: HTT AJ (increase in alternative junction mRNA, AC50); for IC50: CJ mRNA decrease, read-out: HTT CJ (decrease in canonical junction mRNA, IC50)
HTT mRNA [2] = assay: Splicing RT-qPCR assay, canonical (CJ) and alternative (AJ) junction mRNA, K562 cells; settings: Homo sapiens, K562.3 cells, 24 hours; for AC50: read-out: HTT AJ (AC50, increase in AJ mRNA); for IC50: read-out: HTT CJ (IC50, decrease in CJ mRNA)
How it was run: (§1)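 Plate K562 cells, add compound (top 10 uM final, DMSO ≤0.25%) and incubate 24 h. Lyse, run one-step RT-qPCR for CJ and AJ, normalize to GAPDH or GUSB, then to DMSO, and express as % response.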

MYB mRNA [3] = assay: as above; settings: Homo sapiens, K562.3 cells, 24 hours; for AC50: read-out: MYB AJ (AC50, increase in AJ mRNA); for IC50: read-out: MYB CJ (IC50, decrease in CJ mRNA)
How it was run: as §1

MYB mRNA [4] = assay: Splicing RT-qPCR assay (THP), Table 2A; settings: Table 2A (THP); for AC50: AJ mRNA increase, read-out: MYB AJ (increase in alternative junction mRNA, AC50); for IC50: CJ mRNA decrease, read-out: MYB CJ (decrease in canonical junction mRNA, IC50)

Row | SMILES | IC50 (HTT mRNA [1]) | IC50 (HTT mRNA [2]) | IC50 (MYB mRNA [3]) | IC50 (MYB mRNA [4]) | AC50 (HTT mRNA [1]) | AC50 (HTT mRNA [2]) | AC50 (MYB mRNA [3]) | AC50 (MYB mRNA [4])
1 | Cc1cn2cc(NC(=O)c3ccc(N4CCC(NC5CC5)CC4)c4cc(C)oc34)cc(F)c2n1 [Compound 185, 4-[4-(cyclopropyl-amino)-1-piperidyl]-N-(8-fluoro-2-methyl-imidazo[1,2-a]pyridin-6-yl)-2-methyl-benzofuran-7-carboxamide] | 1 to 10 µM | 1000 to 10000 nM | 100 to 1000 nM | 100 to 1000 nM | 1000 to 10000 nM | 1000 to 10000 nM | 100 to 1000 nM | < 100 nM
2 | Cc1cn2cc(NC(=O)c3ccc(N4C[C@H](C)N[C@@H](C)C4)c4[nH]cnc34)cc(F)c2n1 [Compound 221, 7-[(3S,5S)-3,5-dimethylpiperazin-1-yl]-N-(8-fluoro-2-methylimidazo[1,2-a]pyridin-6-yl)-1H-1,3-benzodiazole-4-carboxamide] | 1 to 10 µM | > 10000 nM | 100 to 1000 nM | 100 to 1000 nM | 1000 to 10000 nM | > 10000 nM | 100 to 1000 nM | 100 to 1000 nM
3 | CCNC1CCN(c2ccc(C(=O)Nc3cn4cc(C)nc4c(OC)n3)c3nn(C)cc23)CC1 [Compound 206, 4-[4-(ethylamino)-1-piperidyl]-N-(8-methoxy-2-methyl-imidazo[1,2-a]pyrazin-6-yl)-2-methyl-indazole-7-carboxamide] | 0.1 to 1 µM | 100 to 1000 nM | < 100 nM | < 100 nM | 100 to 1000 nM | 100 to 1000 nM | < 100 nM | < 100 nM
4 | CN[C@H]1CCN(c2ccc(C(=O)Nc3cc(F)c4nc(C)cn4c3)c3nn(C)nc23)C1 [Compound 163, (S)-N-(8-fluoro-2-methylimidazo-[1,2-a]pyridin-6-yl)-2-methyl-7-(3-(methylamino)pyrrolidin-1-yl)-2H-benzo[d]-[1,2,3]triazole-4-carboxamide] | 0.1 to 1 µM | 100 to 1000 nM | 100 to 1000 nM | 1000 to 10000 nM | 1000 to 10000 nM | 100 to 1000 nM | 100 to 1000 nM | 100 to 1000 nM
5 | Cc1cn2cc(NC(=O)c3ccc(N4CCC(NC5CC5)CC4)n4cc(C)nc34)cc(F)c2n1 [Compound 210, 5-(4-(cyclopropylamino)piperidin-1-yl)-N-(8-fluoro-2-methylimidazo[1,2-a]pyridin-6-yl)-2-methylimidazo[1,2-a]-pyridine-8-carboxamide] | < 0.1 µM | 100 to 1000 nM | < 100 nM | < 100 nM | 100 to 1000 nM | 100 to 1000 nM | 100 to 1000 nM | < 100 nM
6 | COc1nc2c(C(=O)Nc3cc(F)c4nc(C)cn4c3)ccc(N3CCC(N)CC3)c2s1 [Compound 208, 7-(4-aminopiperidin-1-yl)-N-(8-fluoro-2-methylimidazo[1,2-a]pyridin-6-yl)-2-methoxybenzo[d]thiazole-4-carboxamide] | < 0.1 µM | 100 to 1000 nM | < 100 nM | < 100 nM | 100 to 1000 nM | 100 to 1000 nM | < 100 nM | < 100 nM
7 | CCNC1CCN(c2ccc(C(=O)Nc3cn4cc(C)nc(C)c4n3)c3nn(C)cc23)CC1 [Compound 181, N-(6,8-dimethylimidazo [1,2-a]pyrazin-2-yl)-4-[4-(ethylamino)-1-piperidyl]-2-methyl-indazole-7-carboxamide] | 1 to 10 µM | 100 to 1000 nM | 100 to 1000 nM | 100 to 1000 nM | 1000 to 10000 nM | 100 to 1000 nM | 100 to 1000 nM | 100 to 1000 nM
8 | Cc1cn2cc(NC(=O)c3ccc(N4C[C@@H](C)N[C@@H](C)C4)c4[nH]cnc34)cc(F)c2n1 [Compound 220, 7-[(3R,5S)-3,5-dimethylpiperazin-1-yl]-N-(8-fluoro-2-methyl-imidazo[1,2-a]pyridin-6-yl)-1H-1,3-benzodiazole-4-carboxamide] | > 10 µM | 1000 to 10000 nM | 100 to 1000 nM | 100 to 1000 nM | 1000 to 10000 nM | > 10000 nM | 100 to 1000 nM | 100 to 1000 nM
9 | CNC1(C)CCN(c2cc(F)c(C(=O)Nc3cn4cc(C)nc4c(F)c3OC)c3nn(C)cc23)CC1 [Compound 180, 6-fluoro-N-(8-fluoro-7-methoxy-2-methyl-imidazo[1,2-a]pyridin-6-yl)-2-methyl-4-[4-methyl-4-(methylamino)-1-piperidyl]indazole-7-carboxamide] | < 0.1 µM | < 100 nM | < 100 nM | < 100 nM | < 100 nM | < 100 nM | < 100 nM | < 100 nM
10 | COCC1(N[C@H]2CCN(c3ccc(C(=O)Nc4cc(F)c5nc(C)cn5c4)c4nn(C)cc34)C2)CC1 [Compound 118, (S)—N-(8-fluoro-2-methylimidazo[1,2-a]pyridin-6-yl)-4-(3-((1-(methoxymethyl)cyclopropyl)amino)pyrrolidin-1-yl)-2-methyl-2H-indazole-7-carboxamide] | > 10 µM | 1000 to 10000 nM | 1000 to 10000 nM | 100 to 1000 nM | > 10000 nM | > 10000 nM | 1000 to 10000 nM | 1000 to 10000 nM
11 | CN[C@@H]1CCN(c2ccc(C(=O)Nc3cc(F)c4nc(C)cn4c3)c3nn(C)cc23)[C@H]1C [Compound 155, N-(8-fluoro-2-methylimidazo-[1,2-a]pyridin-6-yl)-2-methyl-4-[(2S,3R)-2-methyl-3-(methylamino)-pyrrolidin-1-yl]indazole-7-carboxamide] | > 10 µM | > 10000 nM | 1000 to 10000 nM | > 10000 nM | > 10000 nM | > 10000 nM | > 10000 nM | 1000 to 10000 nM
12 | CCNC1CCN(c2ccc(C(=O)Nc3cc(OC)c4nc(C)cn4c3)c3nn(C)cc23)CC1 [Compound 175, 4-(4-(ethylamino)piperidin-1-yl)-N-(8-methoxy-2-methyl-imidazo-[1,2-a]pyridin-6-yl)-2-methyl-2H-indazole-7-carboxamide] | 1 to 10 µM | 100 to 1000 nM | 100 to 1000 nM | < 100 nM | 1000 to 10000 nM | 1000 to 10000 nM | 100 to 1000 nM | < 100 nM

Further lines, with some results ahead:

Row | IC50 (HTT mRNA [1]) | IC50 (HTT mRNA [2]) | IC50 (MYB mRNA [3]) | IC50 (MYB mRNA [4]) | SMILES | AC50 (HTT mRNA [1]) | AC50 (HTT mRNA [2]) | AC50 (MYB mRNA [3]) | AC50 (MYB mRNA [4])
13 | 1 to 10 µM | 1000 to 10000 nM | 1000 to 10000 nM | 1000 to 10000 nM | Cc1cn2nc(C(=O)Nc3ccc(N4C[C@@H](C)N[C@@H](C)C4)c4cc[nH]c34)cc(C)c2n1 [Compound 237, N-(4-[(3R,5S)-3,5-dimethylpiperazin-1-yl]-1H-indol-7-yl)-2,8-dimethylimidazo[1,2-b]pyridazine-6-carboxamide] | 1000 to 10000 nM | 1000 to 10000 nM | 1000 to 10000 nM | 1000 to 10000 nM
14 | > 10 µM | > 10000 nM | < 100 nM | < 100 nM | COCCN[C@@H]1CCN(c2cc(O)c(C(=O)Nc3cc(F)c4nc(C)cn4c3)c3nn(C)cc23)C1 [Compound 285, N-(8-fluoro-2-methyl-imidazo[1,2-a]pyridin-6-yl)-6-hydroxy-4-[(3R)-3-(2-methoxyethylamino)pyrrolidin-1-yl]-2-methyl-indazole-7-carboxamide] | > 10000 nM | > 10000 nM | < 100 nM | < 100 nM
15 | > 10 µM | > 10000 nM | 100 to 1000 nM | 1000 to 10000 nM | Cc1cn2cc(NC(=O)c3ccc(N4CCC(NC5CC5)CC4)c4cn(C)nc34)nc2c(C)n1 [Compound 297, 4-[4-(cyclopropylamino)-1-piperidyl]-N-(6,8-dimethylimidazo[1,2-a]pyrazin-2-yl)-2-methyl-indazole-7-carboxamide] | > 10000 nM | > 10000 nM | 100 to 1000 nM | 100 to 1000 nM
16 | > 10 µM | 1000 to 10000 nM | 1000 to 10000 nM | > 10000 nM | CCNC1CCN(c2ccc(C(=O)Nc3cc(F)c4nc(COC)cn4c3)c3nn(C)cc23)CC1 [Compound 284, 4-[4-(ethylamino)-1-piperidyl]-N-[8-fluoro-2-(methoxymethyl)imidazo[1,2-a]pyridin-6-yl]-2-methyl-indazole-7-carboxamide] | > 10000 nM | > 10000 nM | 1000 to 10000 nM | 1000 to 10000 nM
17 | 1 to 10 µM | 1000 to 10000 nM | 100 to 1000 nM | 100 to 1000 nM | CO[C@H]1C[C@@H](N[C@H]2CCN(c3ccc(C(=O)Nc4cc(F)c5nc(C)cn5c4)c4nn(C)cc34)C2)C1 [Compound 277, N-(8-fluoro-2-methylimidazo[1,2-a]pyridin-6-yl)-4-((S)-3-(((1s,3R)-3-methoxy-cyclobutyl)amino)pyrrolidin-1-yl)-2-methyl-2H-indazole-7-carboxamide] | 1000 to 10000 nM | < 100 nM | 100 to 1000 nM | 100 to 1000 nM
18 | > 10 µM | > 10000 nM | > 10000 nM | > 10000 nM | Cc1cn2cc(NC(=O)c3ccc(N4C[C@H](C)N[C@@H](C)C4)c4[nH]nnc34)cc(F)c2n1 [Compound 242, 7-[(3S,5S)-3,5-dimethylpiperazin-1-yl]-N-(8-fluoro-2-methyl-imidazo[1,2-a]pyridin-6-yl)-1H-benzotriazole-4-carboxamide] | > 10000 nM | > 10000 nM | > 10000 nM | > 10000 nM
